The text below walks through data of patent US9956199B2, “Chromane-like cyclic prenylflavonoids for the medical intervention in neurological disorders” (priority 2011, dated 2018).

The test system of one test is MEF E16 cells. Nature of the test: immunocytochemical staining for DCX and Map2ab in MEF cultures (neuronal differentiation). The class given is cell-based, mouse. As to conditions: 7 days; for number of DCX positive cells / number of DCX/Map2ab double positive cells: Neurobasal plus 1% FCS, 10 μM; for number of DCX positive cells: FIG. 3A; for number of DCX/Map2ab double positive cells: FIG. 3B. On the procedure: Following the results from the Luciferase assay described in Example 17, the inventors examined the ability of compounds according to the invention and reference compounds to promote differentiation of MEF E16 cells, using immunocytochemical staining with DCX and Map2ab antibodies.
Compound 1a at 10 and 100 μM was analyzed for its effect on the expression of the neuronal specific markers DCX and Map2ab using primary fetal mouse brain derived cells stimulated in DMEM-KO media.
Mouse embryonic day 16 forebrain cells were prepared as described in Example 17. Before seeding the cells, glass-coverslips were coated and prepared. Glass-coverslips (13 mm) (Menzel GmbH, Braunschweig, Germany) were incubated in 1 M HCl at 65° C. overnight and stored in isopropanol until further use. Coverslips were put into 24-well test plates and air-dried. Subsequently coverslips were incubated for 1 h with 100 μg/ml Poly-L-ornithin solution at 37° C. After washing three times with sterile water coverslips were incubated with 5 μg/ml Laminin solution for 2 h. Immediately after removal of the Laminin solution cells were seeded (40.000 cells/well) in DMEM-KO plus supplement or in NB-B27 plus 1% FCS medium. One day later, cells had attached to the substrate. Cells were stimulated with the above-mentioned substances (in DMEM-KO plus supplement medium: 10 μM and 100 μM; in NB-B27 plus 1% FCS medium: 10 μM) for 3 or 7 days. In the 7 day group, medium including the substances was replaced after three days. Cultures were maintained at 37° C. in a humidified incubator with 5% CO2.
Cells were fixed with phosphate-buffered 4% paraformaldehyde (Sigma-Aldrich, Taufkirchen, Germany). […] The specimens were incubated overnight at 4° C. with the primary antibodies at the following dilutions in FSGB: rabbit anti Doublecortin (DCX) 1:500 (NEB, Frankfurt, Germany) and mouse anti-Map 2a+2b 1:400 (Sigma-Aldrich, Taufkirchen, Germany). After washing three times with FSGB, cells were incubated with the species-specific secondary antibodies, which were conjugated to fluorochromes, for 2 hours in the dark at room temperature. To remove unbound secondary antibodies, cells were washed again with PBS. Nuclear counterstaining was performed with 4′,6′-diamidino-2-phenylindole dihydrochloride hydrate (DAPI) at […] (Sigma Aldrich, Taufkirchen, Germany). Finally, cells were washed again three times with PBS and mounted on microscope slides using Prolong Antifade reagent (Invitrogen, Oreg., USA).
The immunostainings were examined using Olympus IX81 inverted research microscope and the software Volocity 5.3.1. To quantify the number of cells, five indiscriminately chosen visual fields per coverslip were selected under a focus of 40 times. The total number of cells (DAPI positive cells), the number of DCX positive, Map2ab positive, and DCX/Map2ab double positive cells was determined.

The subject of test [1] is promoter of the neuronal precursor specific gene doublecortin (DCX). Nature of the test: DCX promoter firefly-luciferase assay in primary fetal mouse brain derived (MEF) cells. Type of test: cell-based. The following applies: for effect on DCX promoter induction: 10 μM, MEF cells, three days; for stimulatory effect on the DCX promoter activity (FF/R relative to control): DCX promoter-luciferase transfected MEF cells, stimulated three days. On the procedure:
Primary mouse embryonic day 16 forebrain (MEF) cultures were prepared as follows. Pregnant NMRI mice (Charles River Laboratories, Sulzfeld, Germany) were sacrificed and the uteri promptly removed and immersed in ice-cold Dulbecco's phosphate buffered saline solution—DPBS (PAA, Pasching, Austria). Eight embryonic day (E) 16 embryos were released from the uteri; forebrains were taken out, separated from surrounding tissues and mechanically dissociated using a razor blade. Subsequently the dissociated cells were collected by 5 min centrifugation at 120×g. The pellet was resuspended in 10 ml PPD-solution containing 0.01% papain (Worthington, England), 0.1% Dispasell (Roche, Basel, Switzerland), 0.01% DNasel (Worthington, England), 12.4 mM MgSO4 dissolved in HBSS w/o Ca/Mg (PAA, Pasching, Austria). The cell suspension was incubated at 37° C. and triturated every ten minutes for three times. The cell suspension was then centrifuged at 120×g for 5 minutes and washed three times in Neurobasal medium (Gibco BRL, Germany) supplemented with 2% (v/v) B27 (Gibco BRL, Karlsruhe), 2 mM L-glutamine, 100 μg/ml Penicillin/Streptomycin (PAN Biotech GmbH, Aidenbach, Germany). Finally, the cell preparation was resuspended in 12 ml Neurobasal medium supplemented with B27 (Gibco BRL, Karlsruhe), 2 mM L-glutamine, 100 μg/ml Penicillin/Streptomycin (PAN Biotech GmbH, Aidenbach, Germany), 20 ng/ml Epidermal Growth Factor—rhEGF, 20 ng/ml Fibroblast Growth Factor—rhFGF (R&D Systems, Wiesbaden-Nordenstadt, Germany) and 2 μg/ml Heparin (Sigma-Aldrich, Taufkirchen, Germany) (NB plus all), seeded in one T75 flask (TPP, Switzerland) and maintained in a humidified atmosphere at 37° C. and 5% CO2. […] On this day (day 2), half of the medium was refreshed and on day 4 cells were passaged. To passage the cells, the culture medium containing the floating neurospheres was collected in a 15 ml tube (Corning, Lowell, USA) and centrifuged at 120×g for 5 min. For dissociation, the pellet was resuspended in 500 μl Accutase (PAA, Pasching, Austria) and triturated using a 1 ml pipette. The cell suspension was incubated at 37° C. for 10 min, and then, 10 ml media were added. Cell number was determined by Trypan blue exclusion.
Luciferase assays were performed using a noncommercial dual luciferase enzyme assay system (Dyer et al., 2000, Anal Biochem). In this system, a co-transfection with pDCX-Luci and a control vector driving Renilla-luciferase under the CMV promoter was performed. The two different luciferases have different specific substrates and, therefore, the DCX regulatory region driven firefly luciferase activity can be distinguished from CMV driven Renilla-luciferase. For analysis, the firefly luciferase activity was normalized against the CMV driven Renilla-luciferase. For each transfection reaction, a volume containing two million cells was transferred into a 15 ml tube (Corning, Lowell, USA), centrifuged at 120×g for 5 min to pellet the cells and resuspended in 100 μl Amaxa Mouse Neural Stem Cell Nucleofector Kit (Lonza, Kln, Germany). Then, pDCX-Luci (Karl, 2005) and pRL3 (Promega, Mannheim, Germany) (5 μg each) were added and the entire reaction mix was transferred into an Amaxa transfection cuvette. Transfection was done using the A-033 program in the Amaxa Nucleofector II (Lonza, Kln, Germany). Transfected cells were then pipetted into 20 ml of DMEM knockout medium (Gibco BRL, Germany) containing 20% serum replacement supplement (PAN Biotech GmbH, Aidenbach, Germany), 2 mM L-glutamine (PAN Biotech GmbH, Aidenbach, Germany) and 100 μg/ml Penicillin/Streptomycin (PAN Biotech GmbH, Aidenbach, Germany) (DMEM-KO plus supplements) in a 50 ml tube (Corning, Lowell, USA). From this resulting cell suspension, 200 μl per well were plated in Poly-Ornithine/Laminin coated 96-well-luciferase plates (Wimmer & Macho, Wels, Austria) in a cell density of 20.000 cells per well, as described herein below.

“Also recorded” adds a separate entry of the source.

Regarding `COc1cc2c(c(O)c1C(=O)/C=C/c1ccc(O)cc1)C=CC(C)(C)O2` [Compound 1a, (E)-1-(5-hydroxy-7-methoxy-2,2-dimethyl-2H-chromen-6-yl)-3-(4-hydroxyphenyl)prop-2-en-1-one], in the test on MEF E16 cells (DMEM-KO medium, 10 and 100 μM, FIG. 2), the “expression of the neuronal specific markers DCX and Map2ab (percentage of positive cells)” value is “elevated number of DCX positive and of MAP2ab positive cells; also recorded: enhances the expression of the neuronal specific markers DCX and Map2ab”. Further, in the test on MEF E16 cells, the “number of DCX positive cells” value is “most vigorous effect”; the “number of DCX/Map2ab double positive cells” value is “highest number of DCX and Map2ab double positive cells”. In test [1], the “effect on DCX promoter induction” value was “significantly higher than those exerted by the reference compounds”; the “stimulatory effect on the DCX promoter activity (FF/R relative to control)” value was “significantly and strongly induce; also recorded: very strong and significant stimulatory effect”.
As for `COc1cc2c(c(O)c1C(=O)/C=C/c1ccc(O)cc1)CCC(C)(C)O2` [Compound 1b, (E)-1-(5-hydroxy-7-methoxy-2,2-dimethylchroman-6-yl)-3-(4-hydroxyphenyl)prop-2-en-1-one], in the test with MEF E16 cells, the “number of DCX positive cells” value is recorded as “strongly enhanced the number of DCX positive cells”; the “number of DCX/Map2ab double positive cells” value is “highest number of DCX and Map2ab double positive cells”. Also, in test [1], the “effect on DCX promoter induction” value is reported as “significantly higher than those exerted by the reference compounds”; the “stimulatory effect on the DCX promoter activity (FF/R relative to control)” value was “significantly and strongly induce; also recorded: very strong and significant stimulatory effect”.
